Results on two compounds are retold here after PMC5154303, “Flavonol and imidazole derivatives block HPV16 E6 activities and reactivate apoptotic pathways in HPV^+ cells” (Cell Death & Disease, 2016).

Format in all cases: cell-based, human
In test [1] the test system is UMSCC47. The test is described as follows: TRAIL-induced cell death in HPV+ HNSCC line UMSCC47 (MTT). The conditions noted are these: HPV+ #47, 40 μM compound 4 h, 50 ng/ml TRAIL + cycloheximide. The method, then: (§1) Figure 7 Myricetin and spinacine (5) can re-sensitize HPV^+, but not HPV^−, head and neck cancer cell lines to treatment with TRAIL. (a) Both HPV^− and HPV^+ HN cancer cell lines display resistance to TRAIL treatment. (b) HPV^− (UMSCC 29 and SCC 84) and (c) HPV^+ (UMSCC 47, UPCI-SCC90-UP-Clone 35, and UM-SCC47-TC-Clone 3) head and neck cancer cell lines (2 × 10^4 cells per well) were seeded into 96-well plates and allowed to incubate overnight, and then cells were pretreated with myricetin (0–200 μM) or spinacine (0–100 μM) for 4 h. […] Cell viability was measured by the MTT assay, and the viability of cells untreated with small molecules was set at 100%. Experiments were performed in triplicate, and error bars indicate the S.D.
(§2) The extracellular domain of human TRAIL was cloned into a pTriEx expression plasmid containing N-terminal Hisx6 tag. His-TRAIL was expressed in the E. coli BL-21 pLys strain and purified as previously described. Doxorubicin and cisplatin were purchased from Sigma. His-TRAIL, doxorubicin, and cisplatin were diluted in PBS to the desired concentration before using. […] All experiments were repeated at least three times (three biological replicates, carried out on different days), with each experimental group measured in triplicate within each of these individual experiments. […]

Test [2] has as its system SiHa cells. The test is described as follows: Sensitization of SiHa cells to doxorubicin (MTT). The settings on record: 100 μM myricetin or 50 μM spinacine 4 h prior to doxorubicin, versus negative control. The method, then:
Figure 3 (a) HPV^+ SiHa cells are resistant to TRAIL-induced apoptosis as compared with the human osteosarcoma cell line U2OS. Cells (2 × 10^4 cells per well) were seeded into a 96-well plate, allowed to incubate overnight, and then treated with the indicated concentration of TRAIL in the presence of cycloheximide (5 μg/ml). The viability of cells was measured after overnight incubation using the MTT assay; the viability of cells untreated with TRAIL was set at 100% for each group. (b) The indicated concentrations of three small molecules were added to SiHa cells, and an MTT assay was preformed after overnight incubation. The viability of cells untreated with small molecules was set as 100%. (c) The indicated concentrations of myricetin or spinacine were added 4 h prior to TRAIL (100 ng/ml) in the presence of cycloheximide (5 μg/ml) and incubated at 37 °C overnight. […] Cell viability was measured after overnight incubation using the MTT assay, and the viability of cells untreated with either myricetin or spinacine was set at 100%. […]
The extracellular domain of human TRAIL was cloned into a pTriEx expression plasmid containing N-terminal Hisx6 tag. […] All experiments were repeated at least three times (three biological replicates, carried out on different days), with each experimental group measured in triplicate within each of these individual experiments. […]

The subject of test [3] is UM-SCC47-TC-Clone 3. Description: TRAIL-induced cell death in HPV+ HNSCC line UM-SCC47-TC-Clone 3 (MTT). The conditions noted are these: HPV+ 47CL3, 40 μM compound 4 h, 50 ng/ml TRAIL + cycloheximide. The procedure: as §1, §2
Test [4] deals with caspase 3/7. Description: Caspase 3/7 activity assay in SiHa cells. The settings on record: 100 μM myricetin or 50 μM spinacine 4 h, then TRAIL 100 ng/ml + cycloheximide, 0–6 h, versus controls. The method, then: Figure 4 Myricetin and spinacine (5) increase caspase 3/7 activity in SiHa cells following treatment with TRAIL and chemotherapy drugs. SiHa cells (2 × 10^4 cells per well) were seeded into a 96-well plate and allowed to incubate overnight and then pretreated with 100 μM of myricetin or 50 μM of spinacine for 4 h. (a) TRAIL (100 ng/ml), along with cycloheximide (5 μg/ml), (b) cisplatin (50 μM), or (c) doxorubicin (2 μM) were added respectively. Caspase 3/7 activity was measured after 0, 1.5, 3, and 6 h using the CellTiter-Glo assay. Activity at 0 h of treatment was set at 100% for each group. Experiments were performed in triplicate, and error bars indicate the S.D.
Cells were plated into 96-well plates at a density of 2 × 10^4 cells per well and incubated overnight. Small molecules were then added and incubated at 37 °C for 4 h. TRAIL (100 ng/ml), cisplatin (50 μM), and doxorubicin (2 μM) were then added. […] Caspase 3/7 activity was measured using the flourogenic substrate CellTitier-Glo for caspase 3/7 activity (Promega, Fitchburg, WI, USA) following the manufacturer's instructions. […] After a 10-min incubation, the released fluorophore was measured using a plate-reading fluorimeter (Flx800, Bio-Tek Instrument Co., Winooski, VT, USA). […] The resulting difference was expressed as a percentage of the caspase activity of the untreated cells.

Test [5] relates to UPCI-SCC90-UP-Clone 35. The test is described as follows: TRAIL-induced cell death in HPV+ HNSCC line UPCI-SCC90-UP-Clone 35 (MTT). The settings on record: HPV+ #90, 40 μM compound 4 h, 50 ng/ml TRAIL + cycloheximide. The procedure: as §1, §2

With `O=c1c(O)c(-c2cc(O)c(O)c(O)c2)oc2cc(O)cc(O)c12` [Myricetin, myricetin, reference compound], the figures for the “enhancement of TRAIL-induced cell death” value in test [1], in test [3] and in test [5] were 40%, 70% and 30%, respectively. Besides, the “sensitivity of SiHa cells to doxorubicin” value in test [2] is reported as “increased the sensitivity”. The “caspase 3/7 activity in combination with TRAIL” value in test [4] was “increased”.
In the case of `O=C(O)C1Cc2[nH]cnc2CN1` (stereo not shown) [Spinacine (5), 4,5,6,7-tetrahydro-1H-imidazo[4,5–c]pyridine-6-carboxylic acid], the entries for the “enhancement of TRAIL-induced cell death” value in test [1], in test [3] and in test [5] were “up to 50%”, around 60% and “up to 50%”, respectively. The “sensitivity of SiHa cells to doxorubicin” value in test [2] is “increased the sensitivity”. The “caspase 3/7 activity in combination with TRAIL” value in test [4] is given as “increased”.
